# Reference: ChEMBL document CHEMBL5537136 (J Med Chem, 2024)
# Active and inactive are the calls of the source. The calls are words filed in the database; no cut-off is given here.
# What was measured:
# [1] = target: T1, Protein mono-ADP-ribosyltransferase TIPARP (Homo sapiens) (UniProt Q7Z3E1); assay: Inhibition of PARP7 (unknown origin) at 100 nM measured after 1 hr incubation by microplate reader assay relative to control
# T1 sequence (whole entry): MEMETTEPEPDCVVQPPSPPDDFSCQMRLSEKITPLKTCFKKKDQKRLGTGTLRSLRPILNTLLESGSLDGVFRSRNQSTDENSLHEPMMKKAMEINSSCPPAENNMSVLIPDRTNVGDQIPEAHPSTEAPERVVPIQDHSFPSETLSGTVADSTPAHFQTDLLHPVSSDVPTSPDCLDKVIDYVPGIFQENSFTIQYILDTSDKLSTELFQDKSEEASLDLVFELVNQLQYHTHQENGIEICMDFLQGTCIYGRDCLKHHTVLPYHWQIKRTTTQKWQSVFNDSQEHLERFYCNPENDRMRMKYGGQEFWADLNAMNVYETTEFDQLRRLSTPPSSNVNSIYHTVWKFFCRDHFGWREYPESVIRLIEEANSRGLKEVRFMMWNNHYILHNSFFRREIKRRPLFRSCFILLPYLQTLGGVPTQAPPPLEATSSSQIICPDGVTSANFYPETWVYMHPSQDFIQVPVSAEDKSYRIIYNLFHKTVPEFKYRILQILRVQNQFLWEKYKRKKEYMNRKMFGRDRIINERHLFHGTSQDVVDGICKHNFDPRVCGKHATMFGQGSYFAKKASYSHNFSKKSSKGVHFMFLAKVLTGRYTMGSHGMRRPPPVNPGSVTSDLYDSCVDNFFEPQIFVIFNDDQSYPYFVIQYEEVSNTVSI
# CT26 [2] = assay: Antitumor activity in immunocompetent mouse CT26 cell bearing mouse model assessed as tumor growth inhibition at 100 mg/kg, IG treated twice a day measured after 14 days relative to control; type: functional; settings: CT26, po, 336 h, time 14 day, read-out: TGI
# Cytochrome P450 2C9 = Cytochrome P450 2C9 (Homo sapiens, UniProt P11712); assay: Inhibition of CYP2C9 (unknown origin); type: ADME
# [3] = Antiproliferative activity against mouse AML12 cells measured after 6 days incubation by MTT assay; type: toxicity, cell-based
# [4] = Permeability across apical to basolateral side in human Caco-2 cells; type: ADME, cell-based
# CYP3A4/5 = CYP3A4/5 (Homo sapiens, UniProt P08684+P20815); assay: Inhibition of CYP3A4/5 (unknown origin); type: ADME, protein assay
# [5] = Clearance in ICR mouse; type: ADME; settings: in vivo
# [6] = Oral bioavailability in ICR mouse; type: ADME, organism-based; settings: in vivo
# Cytochrome P450 2D6 = Cytochrome P450 2D6 (Homo sapiens, UniProt P10635); assay: Inhibition of CYP2D6 (unknown origin); type: ADME
# [7] = Permeability across basolateral to apical side in human Caco-2 cells; type: ADME, cell-based
# CT26 [8] = assay: Antitumor activity in immunocompetent mouse CT26 cell bearing Balb/c mouse model assessed as induction of IFN-beta mRNA expression in tumor tissue at 100 mg/kg, IG treated twice a day measured after 14 days by quantitative real-time PCR analysis; type: functional, organism-based; settings: time 14.0 day
# [9] = target: T2, Protein mono-ADP-ribosyltransferase TIPARP (Homo sapiens, UniProt Q7Z3E1); assay: Inhibition of PARP7 (unknown origin) measured after 1 hr incubation by microplate reader assay
# T2 sequence (Q7Z3E1 whole entry): T1 sequence (whole entry)
# [10] = target: Poly [ADP-ribose] polymerase 1 (Homo sapiens, UniProt P09874); assay: Inhibition of PARP1 (unknown origin) measured after 1 hr incubation by microplate reader assay
# CT26 [11] = assay: Antitumor activity against mouse CT26 cells implanted in immunodeficient Balb/c mouse assessed as inhibition of tumor growth at 25 mg/kg, ip qod measured after 10 days relative to control; type: functional; settings: CT26, 240 h, time 10 day, read-out: TGI
# Chain of Poly [ADP-ribose] polymerase 1 (P09874 whole entry): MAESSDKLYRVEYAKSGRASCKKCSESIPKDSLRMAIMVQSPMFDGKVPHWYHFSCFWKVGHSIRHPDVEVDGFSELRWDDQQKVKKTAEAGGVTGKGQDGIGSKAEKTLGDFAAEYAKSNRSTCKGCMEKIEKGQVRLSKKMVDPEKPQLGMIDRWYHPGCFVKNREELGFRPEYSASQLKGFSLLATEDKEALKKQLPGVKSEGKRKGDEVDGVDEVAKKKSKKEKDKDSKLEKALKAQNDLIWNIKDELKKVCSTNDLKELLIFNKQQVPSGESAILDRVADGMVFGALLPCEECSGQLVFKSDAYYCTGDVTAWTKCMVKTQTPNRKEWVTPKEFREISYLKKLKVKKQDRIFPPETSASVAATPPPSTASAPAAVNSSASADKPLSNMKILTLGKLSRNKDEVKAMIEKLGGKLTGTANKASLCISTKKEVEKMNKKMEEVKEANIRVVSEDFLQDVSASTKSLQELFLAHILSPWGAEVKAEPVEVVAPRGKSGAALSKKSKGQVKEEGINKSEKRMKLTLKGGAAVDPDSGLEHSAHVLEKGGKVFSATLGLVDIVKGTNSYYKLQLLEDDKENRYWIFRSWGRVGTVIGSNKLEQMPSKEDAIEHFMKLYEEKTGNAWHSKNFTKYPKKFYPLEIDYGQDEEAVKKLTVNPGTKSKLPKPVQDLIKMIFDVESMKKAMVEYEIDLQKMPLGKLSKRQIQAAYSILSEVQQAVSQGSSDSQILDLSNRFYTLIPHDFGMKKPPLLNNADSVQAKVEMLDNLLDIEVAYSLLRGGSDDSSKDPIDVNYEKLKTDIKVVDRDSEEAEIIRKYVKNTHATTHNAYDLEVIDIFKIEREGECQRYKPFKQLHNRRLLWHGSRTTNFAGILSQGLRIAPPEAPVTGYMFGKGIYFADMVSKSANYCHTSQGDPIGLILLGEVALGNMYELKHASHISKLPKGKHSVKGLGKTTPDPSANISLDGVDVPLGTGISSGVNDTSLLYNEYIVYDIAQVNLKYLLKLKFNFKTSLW
# Chain of Cytochrome P450 2C9 (P11712 whole entry): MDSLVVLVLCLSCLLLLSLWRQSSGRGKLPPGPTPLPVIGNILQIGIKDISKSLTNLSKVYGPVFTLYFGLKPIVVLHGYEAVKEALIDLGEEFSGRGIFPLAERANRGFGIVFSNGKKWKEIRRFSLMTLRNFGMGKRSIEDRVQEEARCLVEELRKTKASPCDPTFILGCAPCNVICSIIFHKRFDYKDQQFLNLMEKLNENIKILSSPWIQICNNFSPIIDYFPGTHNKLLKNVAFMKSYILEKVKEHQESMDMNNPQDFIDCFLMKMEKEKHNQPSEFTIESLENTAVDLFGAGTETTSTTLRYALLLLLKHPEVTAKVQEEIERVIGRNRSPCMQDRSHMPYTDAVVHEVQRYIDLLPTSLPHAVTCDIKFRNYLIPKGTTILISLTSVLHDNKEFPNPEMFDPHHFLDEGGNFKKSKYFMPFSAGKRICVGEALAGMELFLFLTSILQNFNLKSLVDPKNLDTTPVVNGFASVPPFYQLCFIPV
# Chain of Cytochrome P450 2D6 (P10635 whole entry): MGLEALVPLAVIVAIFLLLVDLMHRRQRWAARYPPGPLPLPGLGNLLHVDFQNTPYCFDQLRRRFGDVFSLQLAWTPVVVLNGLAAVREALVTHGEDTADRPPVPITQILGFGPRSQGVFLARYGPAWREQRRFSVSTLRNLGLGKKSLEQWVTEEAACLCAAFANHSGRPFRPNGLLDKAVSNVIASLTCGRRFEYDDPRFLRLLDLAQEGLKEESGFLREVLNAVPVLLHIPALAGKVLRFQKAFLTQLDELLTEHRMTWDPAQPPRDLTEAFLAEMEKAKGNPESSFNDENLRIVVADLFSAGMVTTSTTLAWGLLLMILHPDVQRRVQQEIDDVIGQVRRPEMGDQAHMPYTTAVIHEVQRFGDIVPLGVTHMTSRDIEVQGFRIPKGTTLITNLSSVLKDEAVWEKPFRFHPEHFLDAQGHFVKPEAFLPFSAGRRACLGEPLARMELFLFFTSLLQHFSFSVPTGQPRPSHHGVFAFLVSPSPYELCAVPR
smiles,measurement,setting,value
NC(=O)c1cccc2cn(CCC(=O)N3CCN(c4ncc(C(F)(F)F)cn4)CC3)nc12,inhibition,[1],33.9%
CC(C(=O)N1CCN(c2ccc3c(c2)OC(F)(F)O3)CC1)n1cc2cccc(C(N)=O)c2n1 (stereo not drawn),inhibition,[1],13%
C[C@@H](COCCC(=O)N1CCN(c2ncc(C(F)(F)F)cn2)CC1)Nc1cn[nH]c(=O)c1C(F)(F)F [ATAMPARIB],inhibition in vivo at 100 mg/kg,CT26 [2],4%
same,IC50,Cytochrome P450 2C9,> 30 µM
same,IC50 at 6 days,[3],> 50 µM
same,Papp A→B,[4],41 nm/s
same,IC50,CYP3A4/5,> 30 µM
same,clearance,[5],4.02 L/h/kg
same,bioavailability,[6],25.7%
same,IC50,Cytochrome P450 2D6,> 30 µM
same,Papp B→A,[7],240 nm/s
same,Activity,CT26 [8],inactive
CCC(C(=O)N1CCN(c2ncc(C(F)(F)F)cn2)CC1)n1cc2cccc(C(N)=O)c2n1 (stereo not drawn),inhibition,[1],63%
NC(=O)c1cccc2cn(CC(=O)N3CCN(c4ccc5c(c4)OC(F)(F)O5)CC3)nc12,inhibition,[1],17.5%
CC(C(=O)N1CCN(c2ncc(Br)cn2)CC1)n1cc2cccc(C(N)=O)c2n1 (stereo not drawn),inhibition,[1],85.6%
same,IC50,[9],0.0223 µM
CC(C(=O)N1CCN(c2ncc(F)cn2)CC1)n1cc2cccc(C(N)=O)c2n1 (stereo not drawn),inhibition,[1],64.5%
NC(=O)c1cccc2cn(CC(=O)N3CCN(c4ccc(C(F)(F)F)cn4)CC3)nc12,IC50,[10],> 1.3 µM
same,inhibition,[1],68.7%
CC(C(=O)N1CCN(c2ccc(C(F)(F)F)cn2)CC1)n1cc2cccc(C(N)=O)c2n1 (stereo not drawn),inhibition,[1],91.2%
same,IC50,[9],0.02 µM
NC(=O)c1cccc2cn(C(F)C(=O)N3CCN(c4ncc(C(F)(F)F)cn4)CC3)nc12 (stereo not drawn),inhibition,[1],63%
same,IC50,[9],0.122 µM
COc1cnc(N2CCN(C(=O)C(C)n3cc4cccc(C(N)=O)c4n3)CC2)nc1 (stereo not drawn),inhibition,[1],65.5%
CC(C(=O)N1CCN(c2ncccn2)CC1)n1cc2cccc(C(N)=O)c2n1 (stereo not drawn),inhibition,[1],19.7%
O=c1[nH]cc(F)c(=O)[nH]1 [FLUOROURACIL],inhibition in vivo at 25 mg/kg,CT26 [11],65%
Cc1cnc(N2CCN(C(=O)C(C)n3cc4cccc(C(N)=O)c4n3)CC2)nc1 (stereo not drawn),inhibition,[1],79.5%
same,IC50,[9],0.062 µM
CC(C(=O)N1CCN(c2ncc(C#N)cn2)CC1)n1cc2cccc(C(N)=O)c2n1 (stereo not drawn),inhibition,[1],71%
CC(C(=O)N1CCN(c2ncc(S(C)(=O)=O)cn2)CC1)n1cc2cccc(C(N)=O)c2n1 (stereo not drawn),inhibition,[1],25.6%
NC(=O)c1cccc2cn(CC(=O)N3CCN(c4ncc(C(F)(F)F)cn4)CC3)nc12,IC50,[10],> 1.3 µM
same,inhibition,[1],89%
same,IC50,[9],0.046 µM
